Like-named read-outs stand apart in the source and are kept apart here. Numbered stars: 1 amine (or outer) side, 2 acyl side, 3 side chain; on linkers, the order of the positions; unused ones are H or OH. Bridge positions count the residues as written; N and C are the ends. Square brackets hold non-standard residues; d marks the D form. Peptide text beside a SMILES is read from it. * marks the point of attachment. X2 = CN1C[C@H](CSCC(=O)*)C[C@@H]2c3cccc4[nH]cc(c34)C[C@H]21; Pipz(1-CH2CO,4-CH2CH2NH) = O=C(CN1CCN(CCN[*:1])CC1)[*:2]; Abu = CC[C@H](N)C(=O)O
Assays:
hUTII = target: T1, hUTII (Homo sapiens, UniProt Q9UKP6); assay: hUTII inhibition constant; assay type: binding
T1 sequence (Q9UKP6 1-389): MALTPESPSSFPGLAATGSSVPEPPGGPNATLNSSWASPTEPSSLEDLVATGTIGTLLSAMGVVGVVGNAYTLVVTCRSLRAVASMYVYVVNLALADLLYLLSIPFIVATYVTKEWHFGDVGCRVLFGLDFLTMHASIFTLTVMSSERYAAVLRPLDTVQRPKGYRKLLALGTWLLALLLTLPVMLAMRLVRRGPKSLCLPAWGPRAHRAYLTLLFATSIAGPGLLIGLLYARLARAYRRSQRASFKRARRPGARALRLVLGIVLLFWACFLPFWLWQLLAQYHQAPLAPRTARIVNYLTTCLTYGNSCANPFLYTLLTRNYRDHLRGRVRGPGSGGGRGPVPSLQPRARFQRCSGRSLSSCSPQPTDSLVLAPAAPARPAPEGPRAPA
Procedure: (§1) Using the discussed assays, the inhibition constants (Ki) for the five human somatostatin receptors (hSSTR1-hSSTR5) and the dopamine-2 receptor (hUTII and hDA2) were measured for the exemplified somatostatin-dopamine conjugates, as follows: […]

hsst3 = target: T2, hsst3 (Homo sapiens, UniProt P32745); assay: Somatostatin receptor radioligand binding assay, hsst3
T2 construct: expressed in transfected cells
Procedure: (§2) Specificity and selectivity of the somatostatin analogues used to synthesize the somatostatin-dopamine chimers were determined by a radioligand binding assay on CHO-K1 cells stably transfected with each of the SSTR subtypes, as follows. Somatostatin analogs are also described in U.S. Patent Application Publication No. 02210006790. The complete coding sequences of genomic fragments of the SSTR 1 (e.g., Genbank accession No. M81829), SSTR 2 (e.g., Genbank accession No. M81830), SSTR 3 (e.g., Genbank accession No. L07062), and SSTR 4 (e.g., Genbank accession No. AL049651) genes and a cDNA clone for SSTR 5 (e.g., Genbank accession No. D16827) was subcloned into the mammalian expression vector pCMV (Life Technologies, Milano, Italy). Other SSTR sequences are known to the skilled artisan. Clonal cell lines stably expressing SSTR's 1-5 were obtained by transfection into CHO-K1 cells (ATCC, Manassas, Va., USA) using the calcium phosphate co-precipitation method (Davis L, et al., 1994 In: Basic methods in Molecular Biology, 2nd edition, Appleton & Lange, Norwalk, Conn., USA: 611-646). The plasmid pRSV-neo (ATCC) was included as a selectable marker. Clonal cell lines were selected in RPMI 1640 media containing 0.5 mg/mL of G418 (Life Technologies, Milano, Italy), ring cloned, and expanded into culture.
(§3) Membranes for in vitro receptor binding assays were obtained by homogenizing the CHO-K1 cells expressing the SSTR's subtypes in ice-cold 50 mM Tris-HCl and centrifuging twice at 39,000 g (10 min), with an intermediate resuspension in fresh buffer. The final pellets were resuspended in 10 mM Tris-HCl for assay.
(§4) For the SSTR 1, 3, 4, and 5 assays, aliquots of the membrane preparations were incubated 90 minutes at 25° C. with 0.05 nM [^125I-Tyr11]SS-14 in 50 mM HEPES (pH 7.4) containing 10 mg/mL BSA, 5 mM MgCl2, 200 KIU/mL Trasylol, 0.02 mg/mL bacitracin, and 0.02 mg/mL phenylmethylsuphonyl fluoride. The final assay volume was 0.3 mL.
(§5) For the SSTR 2 assay, 0.05 nM [^125I]MK-678 was employed as the radioligand and the incubation time was 90 minutes at 25° C. The incubations were terminated by rapid filtration through GF/C glass microfiber filters (Whatman Co.) (pre-soaked in 0.3% polyethylenimine) using a BRANDEL filtration manifold. Each tube and filter was washed three times with 5 mL aliquots of ice-cold buffer. Specific binding was defined as the total radioligand bound minus that bound in the presence of 1000 nM SS-14 for SSTR 1, 3, 4, and 5, or 1000 nM MK-678 for SSTR2.
as §1

hDA2 = assay: Dopamine-2 receptor radioligand binding assay; design: species or system human; conditions: [3H]spiperone
Procedure: Specificity and selectivity for the dopamine-2 receptor of the dopamine analogues used to synthesize the somatostatin-dopamine chimers may be determined by a radioligand binding assay as follows.
Crude membranes were prepared by homogenization of frozen rat corpus striatum (Zivic Laboratories, Pittsburgh, Pa., USA) in 20 mL of ice-cold 50 mM Tris-HCl with a Brinkman Polytron cell disrupter (setting 6, 15 sec). Buffer was added to obtain a final volume of 40 mL, and the homogenate was centrifuged in a Sorval SS-34 rotor at 39,000 g for 10 minutes at 0-4° C. The resulting supernatant was decanted and discarded. The pellet was rehomogenized in ice-cold buffer, pre-incubated at 37° C. for 10 min, diluted, and centrifuged as before. The final pellet was resuspended in buffer and held on ice for the receptor binding assay.
For assay, aliquots of the washed membrane preparations and test compounds were incubated for 15 minutes (37° C.) with 0.25 nM [^3HI]spiperone (16.5 Ci.mmol, New England Nuclear, Boston, Mass., USA) in 50 mM Tris HCl, 120 mM NaCl, 5 mM KCl, 2 mM CaCl2, 1 mM MgCl2. The final assay volume was 1.0 mL. The incubations were terminated by rapid filtration through GF/B glass fibre filters using a Brandel filtration manifold. Each tube and filter was then washed three times with 5-mL aliquots of ice-cold buffer. Specific binding was defined as the total radioligand bound minus that bound in the presence of 1000 nM (+) butaclamol.
as §1

hsst2 = target: T3, hsst2 (Homo sapiens, UniProt P30874); assay: Somatostatin receptor radioligand binding assay, hsst2; conditions: CHO-K1 membranes, [125I]MK-678
T3 construct: expressed in transfected cells
Procedure: as §2, §3, §5

hsst5 = target: T4, hsst5 (Homo sapiens, UniProt P35346); assay: Somatostatin receptor radioligand binding assay, hsst5; conditions: CHO-K1 membranes, [125I-Tyr11]SS-14
T4 construct: expressed in transfected cells
Procedure: as §2, §3, §4, §5

[1] = CHO-K1 membranes, [125I-Tyr11]SS-14, read-out: hsst3 Ki

T4 sequence (P35346 whole entry): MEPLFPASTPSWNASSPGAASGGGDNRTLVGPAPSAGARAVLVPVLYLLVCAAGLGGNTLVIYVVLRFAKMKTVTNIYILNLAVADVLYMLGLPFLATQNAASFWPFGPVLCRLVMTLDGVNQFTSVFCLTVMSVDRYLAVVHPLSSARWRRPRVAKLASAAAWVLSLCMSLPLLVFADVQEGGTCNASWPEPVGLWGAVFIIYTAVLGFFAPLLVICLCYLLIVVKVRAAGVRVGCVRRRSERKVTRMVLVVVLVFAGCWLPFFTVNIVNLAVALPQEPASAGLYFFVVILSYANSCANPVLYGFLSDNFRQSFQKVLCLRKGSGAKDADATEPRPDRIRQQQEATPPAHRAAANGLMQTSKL
T2 sequence (P32745 whole entry): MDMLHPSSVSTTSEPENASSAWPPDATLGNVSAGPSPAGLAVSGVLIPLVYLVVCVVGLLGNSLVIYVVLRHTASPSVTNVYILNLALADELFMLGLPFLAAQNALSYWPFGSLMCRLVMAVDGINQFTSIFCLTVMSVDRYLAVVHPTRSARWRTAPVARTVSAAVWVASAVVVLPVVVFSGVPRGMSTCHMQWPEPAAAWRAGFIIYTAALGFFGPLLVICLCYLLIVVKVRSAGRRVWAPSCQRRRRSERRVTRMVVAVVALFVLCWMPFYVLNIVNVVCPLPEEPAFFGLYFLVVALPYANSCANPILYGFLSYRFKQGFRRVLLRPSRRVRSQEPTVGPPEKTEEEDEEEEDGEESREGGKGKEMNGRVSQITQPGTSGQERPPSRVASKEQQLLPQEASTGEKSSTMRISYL
T3 sequence (P30874 whole entry): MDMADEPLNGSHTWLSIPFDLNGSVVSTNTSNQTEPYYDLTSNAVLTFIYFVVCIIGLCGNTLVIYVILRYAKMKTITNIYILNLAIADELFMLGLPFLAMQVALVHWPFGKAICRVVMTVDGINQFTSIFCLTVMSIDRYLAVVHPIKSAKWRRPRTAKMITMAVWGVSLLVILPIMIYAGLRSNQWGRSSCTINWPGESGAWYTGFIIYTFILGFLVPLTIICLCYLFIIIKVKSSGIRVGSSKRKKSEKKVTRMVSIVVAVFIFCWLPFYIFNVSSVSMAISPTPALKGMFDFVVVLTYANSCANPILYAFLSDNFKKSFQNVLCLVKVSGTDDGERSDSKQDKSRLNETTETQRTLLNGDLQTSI

SMILES	Ki (hUTII; read-out: hUTII Ki)	Ki (hsst3; [1])	Ki (hDA2)	Ki (hsst2; read-out: hsst2 Ki)	Ki (hsst5; read-out: hsst5 Ki)	Ki (hsst3)	Ki (hsst5; hsst5 Ki)	Ki (hUTII; hUTII Ki)	Ki (hsst2; hsst2 Ki)
CCCN1C[C@H](CSCC(=O)NCCCC[C@@H](NC(=O)CSC[C@@H]2C[C@@H]3c4cccc5[nH]cc(c45)C[C@H]3N(CCC)C2)C(=O)N[C@H](Cc2ccccc2)C(=O)N[C@H]2CSSC[C@@H](C(=O)N[C@H](C(N)=O)[C@@H](C)O)NC(=O)[C@H]([C@@H](C)O)NC(=O)[C@H](CCCCN)NC(=O)[C@@H](Cc3c[nH]c4ccccc34)NC(=O)[C@H](Cc3ccc(O)c(I)c3)NC2=O)C[C@@H]2c3cccc4[nH]cc(c34)C[C@H]21 [Example 15]			18.3 nM		6.29 nM				
CC(C)[C@@H]1NC(=O)[C@H](CCCCN)NC(=O)[C@@H](Cc2c[nH]c3ccccc23)NC(=O)[C@H](Cc2ccc(O)c(I)c2)NC(=O)[C@@H](NC(=O)[C@@H](Cc2ccccc2)NC(=O)CN2CCN(CCNC(=O)CN3CCN(CCNC(=O)CSC[C@@H]4C[C@@H]5c6cccc7[nH]cc(c67)C[C@H]5N(C)C4)CC3)CC2)CSSC[C@@H](C(=O)N[C@H](C(N)=O)[C@@H](C)O)NC1=O [Example 39]	241 nM		310 nM	0.42 nM		136 nM			
CC[C@@H]1NC(=O)[C@H](CCCCN)NC(=O)[C@@H](Cc2c[nH]c3ccccc23)NC(=O)[C@H](Cc2ccc(O)cc2)NC(=O)[C@@H](NC(=O)[C@@H](Cc2ccccc2)NC(=O)CN(C)C(=O)N[C@H]2C[C@@H]3c4cccc5[nH]cc(c45)C[C@H]3N(C)C2)CSSC[C@@H](C(=O)N[C@H](C(N)=O)[C@@H](C)O)NC1=O [Example 20]			95.2 nM						
CC[C@@H]1NC(=O)[C@H](CCCCN)NC(=O)[C@@H](Cc2c[nH]c3ccccc23)NC(=O)[C@H](Cc2ccc(O)cc2)NC(=O)[C@@H](NC(=O)[C@@H](Cc2ccc(O)cc2)NC(=O)[C@@H](Cc2ccc(O)cc2)NC(=O)[C@H](CCCCN)NC(=O)CSC[C@@H]2C[C@@H]3c4cccc5[nH]cc(c45)C[C@H]3N(C)C2)CSSC[C@@H](C(=O)N[C@H](C(N)=O)[C@@H](C)O)NC1=O [Example 33] (X2-K[dY][dY]CY[dW]K[Abu]CT-NH2; disulfide 4-9)	37.7 nM		206 nM	0.2 nM		65.1 nM	9.82 nM		
CC[C@@H]1NC(=O)[C@H](CCCCN)NC(=O)[C@@H](Cc2c[nH]c3ccccc23)NC(=O)[C@H](Cc2ccc(O)cc2)NC(=O)[C@@H](NC(=O)[C@@H](Cc2ccc(O)cc2)NC(=O)[C@@H](Cc2ccc(O)cc2)NC(=O)[C@H](CCCCN)NC(=O)CN2CCN(CCNC(=O)CSC[C@@H]3C[C@@H]4c5cccc6[nH]cc(c56)C[C@H]4N(C)C3)CC2)CSSC[C@@H](C(=O)N[C@H](C(N)=O)[C@@H](C)O)NC1=O [Example 32] (X2-[Pipz(1-CH2CO,4-CH2CH2NH)]K[dY][dY]CY[dW]K[Abu]CT-NH2; disulfide 5-10)	267 nM		136 nM	0.22 nM		45.6 nM	13.8 nM		
CC[C@@H]1NC(=O)[C@H](CCCCN)NC(=O)[C@@H](Cc2c[nH]c3ccccc23)NC(=O)[C@H](Cc2ccc(O)cc2)NC(=O)[C@@H](NC(=O)[C@@H](Cc2ccccc2)NC(=O)CN(C)C(=O)N[C@H]2C[C@@H]3c4cccc5[nH]cc(c45)C[C@H]3N(C)C2)CSSC[C@@H](C(=O)N[C@H](C(N)=O)[C@@H](C)O)NC1=O [Example 27]						140 nM	22.8 nM	1280 nM	0.02 nM

Second part, led by results:

Ki (hUTII; read-out: hUTII Ki)	Ki (hsst3; [1])	Ki (hDA2)	Ki (hsst2; read-out: hsst2 Ki)	Ki (hsst5; read-out: hsst5 Ki)	SMILES	Ki (hsst3)	Ki (hsst5; hsst5 Ki)	Ki (hUTII; hUTII Ki)	Ki (hsst2; hsst2 Ki)
2250 nM	146 nM	3000 nM	0.41 nM	19.7 nM	CC[C@@H]1NC(=O)[C@H](CCCCN)NC(=O)[C@@H](Cc2c[nH]c3ccccc23)NC(=O)[C@H](Cc2ccc(O)cc2)NC(=O)[C@@H](NC(=O)[C@@H](Cc2ccccc2)NC(=O)[C@@H](N)Cc2ccc(O)c(O)c2)CSSC[C@@H](C(=O)N[C@H](C(N)=O)[C@@H](C)O)NC1=O [Example 19]				
1190 nM	61.9 nM	411 nM	0.35 nM	28.1 nM	CC[C@@H]1NC(=O)[C@H](CCCCN)NC(=O)[C@@H](Cc2c[nH]c3ccccc23)NC(=O)[C@H](Cc2ccc(O)cc2)NC(=O)[C@@H](NC(=O)[C@@H](Cc2ccccc2)NC(=O)CN2CCN(CCNC(=O)CSC[C@@H]3C[C@@H]4c5cccc6[nH]cc(c56)C[C@H]4N(C)C3)CC2)CSSC[C@@H](C(=O)N[C@H](C(N)=O)[C@@H](C)O)NC1=O [Example 38]				
496 nM	106 nM	17.6 nM	0.18 nM	54 nM	CCCN1C[C@H](CSCC(=O)NCCCC[C@H](NC(=O)CSC[C@@H]2C[C@@H]3c4cccc5[nH]cc(c45)C[C@H]3N(CCC)C2)C(=O)N[C@H](Cc2ccccc2)C(=O)N[C@H]2CSSC[C@@H](C(=O)N[C@H](C(N)=O)[C@@H](C)O)NC(=O)[C@H](CC)NC(=O)[C@H](CCCCN)NC(=O)[C@@H](Cc3c[nH]c4ccccc34)NC(=O)[C@H](Cc3ccc(O)cc3)NC2=O)C[C@@H]2c3cccc4[nH]cc(c34)C[C@H]21 [Example 17]				
421 nM	374 nM	126 nM	1.26 nM		CCCN1C[C@H](CSCC(=O)NCCN2CCN(CC(=O)NCCN3CCN(CC(=O)N[C@H](Cc4ccccc4)C(=O)N[C@H]4CSSC[C@@H](C(=O)N[C@H](C(N)=O)[C@@H](C)O)NC(=O)[C@H](C(C)C)NC(=O)[C@H](CCCCN)NC(=O)[C@@H](Cc5c[nH]c6ccccc56)NC(=O)[C@H](Cc5ccc(O)c(I)c5)NC4=O)CC3)CC2)C[C@@H]2c3cccc4[nH]cc(c34)C[C@H]21 [Example 37]				
		226 nM	0.14 nM		CCCN1C[C@H](CNC(=O)CCCC(=O)N[C@H](Cc2ccccc2)C(=O)N[C@H]2CSSC[C@@H](C(=O)N[C@H](C(N)=O)[C@@H](C)O)NC(=O)[C@H](CC)NC(=O)[C@H](CCCCN)NC(=O)[C@@H](Cc3c[nH]c4ccccc34)NC(=O)[C@H](Cc3ccc(O)cc3)NC2=O)C[C@@H]2c3cccc4[nH]cc(c34)C[C@H]21 [Example 29]				
		217 nM			CC(C)[C@@H]1NC(=O)[C@H](CCCCN)NC(=O)[C@@H](Cc2c[nH]c3ccccc23)NC(=O)[C@H](Cc2ccc(O)c(I)c2)NC(=O)[C@@H](NC(=O)[C@@H](Cc2ccccc2)NC(=O)COCCOCCNC(=O)CSC[C@@H]2C[C@@H]3c4cccc5[nH]cc(c45)C[C@H]3N(C)C2)CSSC[C@@H](C(=O)N[C@H](C(N)=O)[C@@H](C)O)NC1=O [Example 41]				
